Test results as given in patent publication US20250066286A1, “COMPOSITIONS OF (Z)-ENDOXIFEN AND METHODS OF ENRICHMENT THEREOF” (Atossa Therapeutics, Inc., priority 2022, published 2025).
Values after ≈ are worked out from the molar mass of the structure shown. Read-outs that look alike come from different tables or passages of the source.

Experiment: Solvent mixture solubility tests of (Z)-endoxifen
Type: physicochemical
Conditions: for solubility: thermodynamic from solid
Experimental: To test the solubility of (Z)-endoxifen in varying conditions, 10 mg of (Z)-endoxifen was added to a stoppered tube, and 0.01 ml of the selected solvent was added (1000 mg/ml solution). The tube was shaken vigorously for 1 minute and then incubated at a constant temperature of 25.0° C. for 15 minutes. If the solid was not completed dissolved, the tube was shaken again and placed at the constant temperature of 25.0° C. for another 15 minutes. If the solid was completely dissolved at this step, it was considered to be very soluble in the selected solvent system. If the solid was not dissolved by this step, another 0.09 ml was added (yielding a 100 mg/ml solution) and an attempt to further dissolve the solid was made by the same steps of shaking and incubating twice over as described previously. If the solid was completely dissolved at this step, it was considered freely soluble. If the solid was not dissolved by this step another 0.2 ml was added (yielding a 33.3 mg/ml solution) and an attempt to further dissolve the solid was made by the same steps of shaking and incubating twice over as described previously. If the solid was completely dissolved at this step, it was considered soluble. If the solid was not dissolved by this step another, 0.7 ml was added (yielding a 10 mg/ml solution) and an attempt to further dissolve the solid was made by the same steps of shaking and incubating twice over as described previously. If the solid was completely dissolved at this step, it was considered sparingly soluble. If the solid was not dissolved by this step the sample was considered to be slightly soluble or very slightly soluble and the solution was heated until the boiling point of the solvent system (max 100° C.) under stirring with a rate of 0.5° C. per minute temperature ramp rate to verify the solubility at high temperatures. The hot solution was after cooled to room temperature with a cooling rate of 0.5° C. per minute to verify if the sample had precipitated after up to 18 hours under magnetic stirring. The same procedure was also used for the solvent mixture solubility tests. The concentrations investigated for the solvent mixture stability were 40 mg/ml and 100 mg/ml. Some solutions in the following example were precipitated by cooling of the solution from a temperature between 50-100° C. to between 10-25° C. at a rate ranging from −0.2 to −0.5° C./minute resulting in a precipitate.

[1] = ethyl acetate/2-propanol 50/50 v/v, 100 mg/mL
[2] = ethyl acetate/tetrahydrofuran 95/5 v/v, 40 mg/mL
[3] = heptane/2-propanol 50/50 v/v, 40 mg/mL

## CC/C(=C(\c1ccc(O)cc1)c1ccc(OCCNC)cc1)c1ccccc1 [(Z)-endoxifen, (Z)-4-(1-(4-(2-(methylamino)ethoxy)phenyl)-2-phenylbut-1-enyl)phenol]
Butyl ethyl ether/methanol (50/50 v/v), organic solvent or mixture, butyl ethyl ether/methanol (50/50 v/v), high temperature, read-out: Solubility
  solubility: 40 to 100 mg/mL (≈ 107 to 268 mM)
Butyl methyl ether/methanol 50/50 v/v, organic solvent or mixture, butyl methyl ether/methanol 50/50 v/v, 100 mg/mL, high temperature, read-out: Solubility HT (100 mg/mL): Sol. HT
  solubility: < 100 mg/mL
Butyl methyl ether/methanol 50/50 v/v, 40 mg/mL
  Solubility HT (40 mg/mL): Clear point: 31.8 °C
Butyl methyl ether/methanol 50/50 v/v, 40 mg/mL, high temperature
  Solubility HT (40 mg/mL): Sol. HT: YES
[1]
  Solubility HT (100 mg/mL): Clear point: 59.8 °C
  Solubility HT (100 mg/mL): Cloudy point: 25 °C
Ethyl acetate/2-propanol 50/50 v/v, 100 mg/mL, high temperature
  Solubility HT (100 mg/mL): Sol. HT: YES
Ethyl acetate/2-propanol 50/50 v/v, 100 mg/mL, on cooling
  Solubility HT (100 mg/mL): Re-PPT: YES
Ethyl acetate/2-propanol (50/50 v/v), organic solvent or mixture, ethyl acetate/2-propanol (50/50 v/v), high temperature, precipitated during cooling, read-out: Solubility
  solubility: 100 mg/mL (≈ 268 mM)
Ethyl acetate/THF (95/5 v/v), organic solvent or mixture, ethyl acetate/THF (95/5 v/v), high temperature, precipitated during cooling, read-out: Solubility
  solubility: 40 mg/mL (≈ 107 mM)
Ethyl acetate/tetrahydrofuran 95/5 v/v, organic solvent or mixture, ethyl acetate/tetrahydrofuran 95/5 v/v, 100 mg/mL, high temperature, read-out: Solubility HT (100 mg/mL): Sol. HT
  solubility: < 100 mg/mL
[2]
  Solubility HT (40 mg/mL): Clear point: 56.3 °C
  Solubility HT (40 mg/mL): Cloudy point: 51.3 °C
Ethyl acetate/tetrahydrofuran 95/5 v/v, 40 mg/mL, high temperature
  Solubility HT (40 mg/mL): Sol. HT: YES
Ethyl acetate/tetrahydrofuran 95/5 v/v, 40 mg/mL, on cooling
  Solubility HT (40 mg/mL): Re-PPT: YES
heptane/2-propanol 50/50 v/v, organic solvent or mixture, heptane/2-propanol 50/50 v/v, 100 mg/mL, high temperature, read-out: Solubility HT (100 mg/mL): Sol. HT
  solubility: < 100 mg/mL
[3]
  Solubility HT (40 mg/mL): Clear point: 64.5 °C
  Solubility HT (40 mg/mL): Cloudy point: 33.7 °C
heptane/2-propanol 50/50 v/v, 40 mg/mL, high temperature
  Solubility HT (40 mg/mL): Sol. HT: YES
heptane/2-propanol 50/50 v/v, 40 mg/mL, on cooling
  Solubility HT (40 mg/mL): Re-PPT: YES
heptane/2-propanol (50/50 v/v), organic solvent or mixture, heptane/2-propanol (50/50 v/v), high temperature, precipitated during cooling, read-out: Solubility
  solubility: 40 mg/mL (≈ 107 mM)
heptane/ethyl acetate 50/50 v/v, organic solvent or mixture, heptane/ethyl acetate 50/50 v/v, 40 mg/mL, high temperature, read-out: Solubility HT (40 mg/mL): Sol. HT
  solubility: < 40 mg/mL
heptane/ethyl acetate 50/50 v/v, organic solvent or mixture, heptane/ethyl acetate 50/50 v/v, 100 mg/mL, high temperature, read-out: Solubility HT (100 mg/mL): Sol. HT
  solubility: < 100 mg/mL
heptane/ethyl acetate (50/50 v/v), organic solvent or mixture, heptane/ethyl acetate (50/50 v/v), high temperature, read-out: Solubility
  solubility: < 40 mg/mL
heptane/toluene 50/50 v/v, organic solvent or mixture, heptane/toluene 50/50 v/v, 40 mg/mL, high temperature, read-out: Solubility HT (40 mg/mL): Sol. HT
  solubility: < 40 mg/mL
heptane/toluene 50/50 v/v, organic solvent or mixture, heptane/toluene 50/50 v/v, 100 mg/mL, high temperature, read-out: Solubility HT (100 mg/mL): Sol. HT
  solubility: < 100 mg/mL
heptane/toluene (50/50 v/v), organic solvent or mixture, heptane/toluene (50/50 v/v), high temperature, read-out: Solubility
  solubility: < 40 mg/mL
water/2-propanol 50/50 v/v, aqueous with cosolvent or surfactant or cyclodextrin, water/2-propanol 50/50 v/v, 40 mg/mL, high temperature, read-out: Solubility HT (40 mg/mL): Sol. HT
  solubility: < 40 mg/mL
water/2-propanol 50/50 v/v, aqueous with cosolvent or surfactant or cyclodextrin, water/2-propanol 50/50 v/v, 100 mg/mL, high temperature, read-out: Solubility HT (100 mg/mL): Sol. HT
  solubility: < 100 mg/mL
water/2-propanol (50/50 v/v), aqueous with cosolvent or surfactant or cyclodextrin, water/2-propanol (50/50 v/v), high temperature, read-out: Solubility
  solubility: < 40 mg/mL
water/THF (50/50 v/v), aqueous with cosolvent or surfactant or cyclodextrin, water/THF (50/50 v/v), high temperature, read-out: Solubility
  solubility: < 40 mg/mL
water/acetonitrile 50/50 v/v, aqueous with cosolvent or surfactant or cyclodextrin, water/acetonitrile 50/50 v/v, 40 mg/mL, high temperature, read-out: Solubility HT (40 mg/mL): Sol. HT
  solubility: < 40 mg/mL
water/acetonitrile 50/50 v/v, aqueous with cosolvent or surfactant or cyclodextrin, water/acetonitrile 50/50 v/v, 100 mg/mL, high temperature, read-out: Solubility HT (100 mg/mL): Sol. HT
  solubility: < 100 mg/mL
water/acetonitrile (50/50 v/v), aqueous with cosolvent or surfactant or cyclodextrin, water/acetonitrile (50/50 v/v), high temperature, read-out: Solubility
  solubility: < 40 mg/mL
water/tetrahydrofuran 95/5 v/v, aqueous with cosolvent or surfactant or cyclodextrin, water/tetrahydrofuran 95/5 v/v, 40 mg/mL, high temperature, read-out: Solubility HT (40 mg/mL): Sol. HT
  solubility: < 40 mg/mL
water/tetrahydrofuran 95/5 v/v, aqueous with cosolvent or surfactant or cyclodextrin, water/tetrahydrofuran 95/5 v/v, 100 mg/mL, high temperature, read-out: Solubility HT (100 mg/mL): Sol. HT
  solubility: < 100 mg/mL
